Test results as given in patent US20060211651A1, “Persulfated oligosaccharide acting on selectins and chemokine” (Taisho Pharmaceutical Co., Ltd., priority 2002, published 2006).

How the values were obtained:
ACHN cells = assay: Sulfation of versican in [35S]sulfate-labeled ACHN cells; type: cell-based; settings: 30 mM sodium chlorate, relative to the case without treatment
Description: (§1) ACHN cells were pre-incubated at 37° C. for 6 hours in RPMI 1640 containing 10% by weight of bovine fetal serum in the presence or absence of 30 mM sodium chlorate. A confluent monolayer of the resulting ACHN cells was labeled by incubation for 18 hours in the presence or absence of 30 mM sodium chlorate, in a medium of either of:
(i) Eagle minimum basal medium SMEM [sulfate-free; manufactured by BioWhittaker] containing 2% by weight of dialyzed bovine fetal serum in the presence of 0.2 mCi/ml [^35S]Na2SO4 [trade name: Sulfer-35; manufactured by ICN Radiochemicals], or
(ii) methionine-free RPMI 1640 medium [manufactured by Invitrogen] containing 2% by weight of dialyzed bovine fetal serum in the presence of 0.2 mCi/ml [^35S]-methionine [manufactured by ICN Radiochemicals].
Immunoprecipitation was performed as follows, according to the method described in the publication of Kawashima, H. et al. [Int. Immunol., 11, 393-405 (1999); all teachings of which are hereby incorporated by reference] except that beads were washed using buffer A (0.05% Tween 20, 20 mM HEPES-NaOH, 0.15M NaCl, 1 mM CaCl2, 1 mM MgCl2, pH6.8). […]
(§2) Thereafter, the beads were washed with the buffer A, to obtain precipitates. The resulting precipitates were subjected to SDS-agarose-PAGE, and thereafter, signal ascribed to ^35S label on a gel was detected by autoradiography.

L-selectin-Ig = biological target: T1, L-selectin-Ig (Homo sapiens, UniProt P14151); assay: Immunoprecipitation of versican from ACHN conditioned medium with L-selectin-Ig; type: binding; settings: 30 mM sodium chlorate; ACHN cells; FIG. 1
T1 construct: purchased R & D Systems Inc
T1 sequence (P14151 with tags, fused parts or gaps limits assumed): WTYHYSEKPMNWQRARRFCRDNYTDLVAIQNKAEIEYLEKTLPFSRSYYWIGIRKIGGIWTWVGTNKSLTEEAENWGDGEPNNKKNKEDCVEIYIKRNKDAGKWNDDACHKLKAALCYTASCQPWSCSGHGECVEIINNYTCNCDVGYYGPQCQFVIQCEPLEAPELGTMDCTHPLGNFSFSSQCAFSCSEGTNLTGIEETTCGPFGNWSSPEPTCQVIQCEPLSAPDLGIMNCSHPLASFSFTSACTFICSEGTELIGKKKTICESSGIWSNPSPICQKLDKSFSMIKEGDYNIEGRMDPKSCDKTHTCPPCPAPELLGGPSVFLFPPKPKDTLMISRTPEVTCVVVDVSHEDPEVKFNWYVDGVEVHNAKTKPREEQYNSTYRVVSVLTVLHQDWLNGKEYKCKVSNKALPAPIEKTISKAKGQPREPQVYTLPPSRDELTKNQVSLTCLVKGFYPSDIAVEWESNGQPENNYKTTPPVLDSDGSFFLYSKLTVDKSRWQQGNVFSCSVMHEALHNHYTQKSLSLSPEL
Description: as §1
(§3) Immunoprecipitation was performed as follows, according to the method described in the publication of Kawashima, H. et al. [Int. Immunol., 11, 393-405 (1999); all teachings of which are hereby incorporated by reference] except that beads were washed using buffer A (0.05% Tween 20, 20 mM HEPES-NaOH, 0.15M NaCl, 1 mM CaCl2, 1 mM MgCl2, pH6.8).
(§4) Each of the antibody and the Ig chimera shown in FIG. 1 (equivalent to 10 μg) was coupled to Protein A-Sepharose column (equivalent to 10 μL) by a conventional method, to obtain antibody-coupled Protein A-Sepharose or Ig chimera-coupled Protein A-Sepharose. […]
as §2

P-selectin-Ig = assay: Immunoprecipitation of versican from ACHN conditioned medium with P-selectin-Ig; type: binding; settings: 30 mM sodium chlorate; ACHN cells; FIG. 1
Description: as §1, §3, §4, §2

CD44-Ig = assay: Immunoprecipitation of versican from ACHN conditioned medium with CD44-Ig; type: binding, human; settings: 30 mM sodium chlorate; ACHN cells; FIG. 1
Description: as §1, §3, §4, §2

In the case of [Na+].[O-][Cl+2]([O-])[O-] [sodium chlorate], the inhibition of sulfation (ACHN cells) is reported as “more than 90%”, the “effect of treatment on interaction between versican and L-selectin-Ig” value (L-selectin-Ig) is reported as “inhibited” and the “effect of treatment on interaction between versican and P-selectin-Ig” value (P-selectin-Ig) is reported as “inhibited”. The “effect of treatment on interaction between versican and CD44-Ig” value (CD44-Ig) was “not inhibited”.
